This experiment deals with T1, human histamine H3 receptor (Homo sapiens, UniProt Q9Y5N1).
T1 construct: endogenous in cells; host or cells: HT1080-Gqαi5 RAGE clone (RAGE-H3), human fibrosarcoma line; integrated RAGE vector pFG8-HH3 supplies exon 1, the cell's own gene supplies the other exons
Description: Competition radioligand binding assay with [125I]iodoproxyfan on membranes of RAGE-H3 (HT1080-Gqαi5) cells expressing human H3 receptor. The note with it: ~0.15 nM [125I]iodoproxyfan, 1.5 hrs at room temperature, head does not name the quantity (apparent Ki by Cheng-Prussof). How it is done:
Representative compounds of the present invention that were prepared by the procedures of Examples 1-83 were evaluated in binding assays against cells expressing human H3 receptor by the following procedure.
[^125I]iodoproxyfan (2000 Ci/mmol) was obtained from Amersham Bioscience (Piscataway, N.J.). All other chemicals were either from Sigma-Aldrich (St. Louis, Mo.) or Tocris Cookson Inc. (Ellisville, Mo.).
The human histamine H3 receptor was stably expressed in HT1080 cells containing the chimeric G-protein, Gq[…]i5 (Coward et al., Anal Biochem 1999; 270:242-8). HT1080-Gqαi5 cells were grown in alpha-modified MEM containing 10% fetal bovine serum and 7 μg/ml blasticidin at 37° C. in 5% CO2/95% atmosphere. Cells (4.8×10^9) were irradiated with 50 rads from a ^137Cs source and the pFG8-HH3 RAGE (Random Activation of Gene Expression; see Harrington et al., Nature Biotechnology. 2001; 19:440-45) vector was subsequently integrated into the cells via electroporation (250V, 600 μF, 50Ω). The RAGE vector pFG8-HH3 contained cDNA sequence coding for the first exon (83 amino acids) of human H3 receptor. After electroporation, cells were plated in T75 flasks and grown in alpha-modified MEM. The culture medium was replaced 48 hrs after electroporation with alpha-modified MEM, 10% fetal bovine serum, 500 μg/ml hygromycin B and 3 μg/ml puromycin. Medium was replaced every four days during cell expansion. To identify RAGE activated cells expressing the H3 receptor, pools of approximately 10,000 colonies (5×10^7-1.5×10^8 cells total) were screened by PCR for the desired gene product (using primers specific to the RAGE vector and exon 2 of the H3 receptor). […] Positive 100 cells/well pools were identified by PCR, confirmed by sequencing, and subsequently subcloned to 0.8 cells/well. Once clones expressing the H3 receptor were identified by PCR analysis, assays (FLIPR or radioligand binding) were performed to confirm that the activated gene produced functional protein. The protein expression in the initial clones obtained from the RAGE library was increased by growth in the presence of methotrexate. Since the integrated RAGE vector contains the DHFR gene, such treatment selects for cells that have amplified the genetic locus containing the RAGE insert. Subclones obtained after methotrexate amplification were tested for functional activity in FLIPR assays to identify the clone that was most suitable for HTS. The final HT1080-Gqαi5 RAGE clone (RAGE-H3) expressing the human histamine H3 receptor was grown in alpha-modified MEM containing 10% fetal bovine serum, 3 μg/ml puromycin, 500 μg/ml hygromycin B, 3.2 μM methotrexate at 37° C. in 5% CO2/95% atmosphere.
RAGE-H3 cells (10^9) were washed twice with cold PBS, scraped off the plates, and centrifuged at 1000×g for 5 minutes. Cells were resuspended in ice-cold 10 mM Tris HCl, pH 7.4, containing 5 mM EDTA and protease inhibitor cocktail tablets (Roche Molecular Biochemicals). After incubating on ice for 10 min, the cells were homogenized with a dounce homogenizer or a polytron tissue grinder, and centrifuged at 1000×g for 10 min at 4° C. The resulting supernatant was centrifuged at 32,000×g for 30 min at 4° C. The membrane pellets were resuspended in 50 mM Tris HCl, pH 7.4, and stored at −80° C. until use. Protein concentration was determined by the Bradford method (Bio-Rad Laboratories, CA).
Binding assays were carried out in 96-well polypropylene plates in 50 mM Tris HCl, pH 7.4, containing 1 mM EDTA. Reaction mixtures contained 100 μl of membrane suspension, 50 μl of 4% DMSO, and 50 μl of increasing amounts of [^125I]iodoproxyfan (final concentration 0.0005-1.8 nM for human H3 receptor saturation binding assay). Nonspecific binding was defined by adding 10 μM clobenpropit to the reaction mixtures. […]

pKi: −log10 of the molar value.

T1 sequence (Q9Y5N1 whole entry): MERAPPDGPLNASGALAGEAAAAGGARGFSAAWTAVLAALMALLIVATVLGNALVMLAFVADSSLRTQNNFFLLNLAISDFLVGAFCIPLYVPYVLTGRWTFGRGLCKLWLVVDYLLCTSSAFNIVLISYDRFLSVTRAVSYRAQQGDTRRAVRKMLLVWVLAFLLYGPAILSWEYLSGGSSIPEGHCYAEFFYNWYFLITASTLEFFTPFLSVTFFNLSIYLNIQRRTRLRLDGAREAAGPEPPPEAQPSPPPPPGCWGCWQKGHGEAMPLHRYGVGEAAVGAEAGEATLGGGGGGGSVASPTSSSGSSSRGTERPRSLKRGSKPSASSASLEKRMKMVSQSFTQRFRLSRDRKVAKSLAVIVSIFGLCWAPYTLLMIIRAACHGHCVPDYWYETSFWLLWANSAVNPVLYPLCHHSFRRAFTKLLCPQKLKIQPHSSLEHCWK

What is called pKi is the negative decadic logarithm of the Ki, by convention in mol/L. In the case of `CCc1c(C)nn(-c2ccc(OCCCN3CCCC3)cc2)c1C` [Example 37, 4-Ethyl-3,5-dimethyl-1-[4-(3-pyrrolidin-1-ylpropoxy)phenyl]-1H-pyrazole], the pKi was greater than 8.00.

For the compound `CCCCc1c(C)nn(-c2ccc(OCCCN3CCCC3)cc2)c1C` [Example 38, 4-Butyl-3,5-dimethyl-1-[4-(3-pyrrolidin-1-ylpropoxy)phenyl]-1H-pyrazole], the pKi is greater than 8.00. `Cc1nn(-c2ccc(OCCCN3CCCC3)cc2)c(C)c1-c1ccccc1` [Example 39, 4-Phenyl-3,5-dimethyl-1-[4-(3-pyrrolidin-1-ylpropoxy)phenyl]-1H-pyrazole]: the pKi was greater than 8.00.

As to `Cc1cc(-c2ccccc2)nn1-c1ccc(OCCCN2CCCC2)cc1` [Example 40, 5-Methyl-3-phenyl-1-[4-(3-pyrrolidin-1-ylpropoxy)phenyl]-1H-pyrazole], the pKi is greater than 8.00. For `Cc1cc(-c2ccccc2)n(-c2ccc(OCCCN3CCCC3)cc2)n1` [Example 41] the value was greater than 8.00; for `CC(C)(C)c1cc(-c2ccccc2)n(-c2ccc(OCCCN3CCCC3)cc2)n1` [Example 42, 3-tert-Butyl-5-phenyl-1-[4-(3-pyrrolidin-1-ylpropoxy)phenyl]-1H-pyrazole], greater than 8.00; for `FC(F)(F)c1cc(-c2ccccc2)n(-c2ccc(OCCCN3CCCC3)cc2)n1` [Example 50, 5-Phenyl-1-[4-(3-pyrrolidin-1-yl-propoxy)-phenyl]-3-trifluoromethyl-1H-pyrazole], greater than 8.00. For `C[C@@H]1CCCN1CCCOc1ccc(-n2nc(C(F)(F)F)cc2-c2ccccc2)cc1` [Example 51, 1-{4-[3-(2-(R)-Methyl-pyrrolidin-1-yl)-propoxy]-phenyl}-5-phenyl-3-trifluoromethyl-1H-pyrazole] the value was greater than 7.00. As to `CN(C)C1CCN(CCCOc2ccc(-n3nc(C(F)(F)F)cc3-c3ccccc3)cc2)C1` (centres unmarked) [Example 52, Dimethyl-(1-{3-[4-(5-phenyl-3-trifluoromethyl-pyrazol-1-yl)-phenoxy]-propyl}-pyrrolidin-3-yl)-amine], the pKi was greater than 5.00. For `FC(F)(F)c1cc(-c2ccccc2)n(-c2ccc(OCCCN3CCOCC3)cc2)n1` [Example 53, 4-{3-[4-(5-Phenyl-3-trifluoromethyl-pyrazol-1-yl)-phenoxy]-propyl}-morpholine] the value was greater than 6.00. Take `FC(F)(F)c1cc(-c2ccccc2)n(-c2ccc(OCCCN3CCCCC3)cc2)n1` [Example 54, 1-{3-[4-(5-Phenyl-3-trifluoromethyl-pyrazol-1-yl)-phenoxy]-propyl}-piperidine]: the pKi is greater than 7.00. As for `Cc1nn(-c2ccc(OCCCN3CCCC3)cc2)c2c1CCCC2` [Example 55, 3-Methyl-1-[4-(3-pyrrolidin-1-yl-propoxy)-phenyl]-4,5,6,7-tetrahydro-1H-indazole], the pKi is greater than 8.00.

Regarding `Cc1c2c(nn1-c1ccc(OCCCN3CCCC3)cc1)CCCC2` [Example 56, 3-Methyl-2-[4-(3-pyrrolidin-1-yl-propoxy)-phenyl]-4,5,6,7-tetrahydro-2H-indazole], the pKi was greater than 9.00. On to `Cc1nn(-c2ccc(OCCCN3CCCC3)cc2)c2c1CCC2` [Example 57, 3-Methyl-1-[4-(3-pyrrolidin-1-yl-propoxy)-phenyl]-1,4,5,6-tetrahydro-cyclopentapyrazole], for which the negative-log Ki (pKi) is greater than 8.00.

For the compound `Cc1c2c(nn1-c1ccc(OCCCN3CCCC3)cc1)CCC2` [Example 58, 3-Methyl-2-[4-(3-pyrrolidin-1-yl-propoxy)-phenyl]-2,4,5,6-tetrahydro-cyclopentapyrazole], the pKi was greater than 7.00.

Turning to `Cc1c2c(nn1-c1ccc(OCCCN3CCCCC3)cc1)CCC2` [Example 60, 3-Methyl-2-[4-(3-piperidin-1-yl-propoxy)-phenyl]-2,4,5,6-tetrahydro-cyclopentapyrazole], the pKi is greater than 8.00. The figure for `Cc1cc(OCCCN2CCCC2)ccc1-n1nc(C(C)C)cc1C(C)C` [Example 61, 3,5-Diisopropyl-1-[2-methyl-4-(3-pyrrolidin-1-ylpropoxy)phenyl]-1H-pyrazole] is greater than 8.00. On to `Cc1cc(OCCCN2CCCCC2)ccc1-n1nc(C(C)C)cc1C(C)C` [Example 62, 3,5-Diisopropyl-1-[2-methyl-4-(3-piperidin-1-ylpropoxy)phenyl]-1H-pyrazole], for which the pKi was greater than 8.00. For `FC(F)(F)c1cc(-c2cc3ccccc3o2)n(-c2ccc(OCCCN3CCCC3)cc2)n1` [Example 63, 5-Benzofuran-2-yl-1-[4-(3-pyrrolidin-1-ylpropoxy)phenyl]-3-trifluoromethyl-1H-pyrazole] the value was greater than 7.00; for `Cc1nn(-c2ccc(OCCCN3CCCC3)cc2)c2c1sc1ccccc12` [Example 64, 3-Methyl-1-[4-(3-pyrrolidin-1-yl-propoxy)-phenyl]-1H-benzo[4,5]thieno[3,2-c]pyrazole], greater than 8.00. As to `Cc1nn(-c2ccc(OCCCN3CCCC3C)cc2)c2c1sc1ccccc12` (centres unmarked) [Example 65, 3-Methyl-1-{4-[3-(2-methyl-pyrrolidin-1-yl)-propoxy]-phenyl}-1H-benzo[4,5]thieno[3,2-c]pyrazole], the pKi is greater than 8.00. The figure for `CC1CCCN1CCCOc1ccc(-n2nc(C(F)(F)F)c3oc4ccccc4c32)cc1` (centres unmarked) [Example 67, 3-{4-[3-(2-Methyl-pyrrolidin-1-yl)-propoxy]-phenyl}-1-trifluoromethyl-3H-8-oxa-2,3-diaza-cyclopenta[a]indene] is greater than 7.00; for `CN(C)C1CCN(CCCOc2ccc(-n3nc(C(F)(F)F)c4oc5ccccc5c43)cc2)C1` (centres unmarked) [Example 68, Dimethyl-(1-{3-[4-(1-trifluoromethyl-8-oxa-2,3-diaza-cyclopenta[a]inden-3-yl)-phenoxy]-propyl}-pyrrolidin-3-yl)-amine] it is greater than 6.00. The figure for `Cc1cc(C(=O)NC2CCCCC2)n(-c2ccc(OCCCN3CCCC3)cc2)n1` [Example 73, 5-Methyl-2-[4-(3-pyrrolidin-1-yl-propoxy)-phenyl]-2H-pyrazole-3-carboxylic acid cyclohexylamide] is greater than 9.00; for `Cc1cc(C(=O)NC2CCCCC2)n(-c2ccc(OCCCN3CCC[C@H]3C)cc2)n1` [Example 74, 5-Methyl-2-{4-[3-(2R-methylpyrrolidin-1-yl)propoxy]phenyl}-2H-pyrazole-3-carboxylic acid cyclohexylamide] it is greater than 9.00; for `Cc1cc(C(=O)NC2CCCCC2)n(-c2ccc(OCCCN3CCCCC3)cc2)n1` [Example 75, 5-Methyl-2-[4-(3-piperidin-1-ylpropoxy)phenyl]-2H-pyrazole-3-carboxylic acid cyclohexylamide] it is greater than 9.00.

Consider `Cc1cc(C(=O)NC2CCCCC2)n(-c2ccc(OCCCN3CCOCC3)cc2)n1` [Example 76, 5-Methyl-2-[4-(3-morpholin-4-ylpropoxy)phenyl]-2H-pyrazole-3-carboxylic acid cyclohexylamide], for which the pKi is greater than 8.00. For `Cc1cc(C(=O)NC2CCCCC2)n(-c2ccc(OCCC3CCCN3C)cc2)n1` (centres unmarked) [Example 77, 5-Methyl-2-{4-[2-(1-methylpyrrolidin-2-yl)ethoxy]phenyl}-2H-pyrazole-3-carboxylic acid cyclohexylamide] the value was greater than 6.00; for `Cc1cc(C(=O)N2CCCC2)n(-c2ccc(OCCCN3CCCC3)cc2)n1` [Example 78, {5-Methyl-2-[4-(3-pyrrolidin-1-ylpropoxy)phenyl]-2H-pyrazol-3-yl}pyrrolidin-1-ylmethanone], greater than 8.00.

These data come from patent publication US7981896B2 (Athersys, Inc., priority 2006, dated 2011).
